Data published in patent US20250090437A1, “COSMETIC COMPOUNDING AGENT, COSMETIC AND PRODUCTION METHOD THEREOF” (MIYOSHI OIL & FAT CO., LTD., priority 2019, published 2025).

Columns and labels:
[1] = Sensory evaluation on damaged hair after using shampoo agent containing organic ammonium salt; set-up: species or system human; settings: shampoo agent containing the compound; treated 10 times
Experimental: (§1) Next, the mixture was cooled to a temperature of 30° C. or lower, and a purified water of an evaporated amount was then added thereto so that the whole hair treatment composition would be 100% by mass, followed by uniformly mixing them so as to obtain a hair treatment composition(s). The pH level of the hair treatment composition was adjusted to pH 6.0 by adding a citric acid or sodium hydroxide.
The damaged hair was repeatedly treated 10 times in a similar manner as 3-1; evaluated were a cohesiveness of the hair, surface smoothness of the hair and waviness of the hair after performing air drying.

[2] = Water retention property test 1; type: physicochemical; settings: 80 wt % aqueous solution
Experimental: A moisture rate after 24 hours was again measured (post-test moisture rate: B), followed by using the formula below to calculate a rate of reduction in moisture so as to evaluate the water retention property. • Pre-test moisture rate: A (%) • Post-test moisture rate: B (%)

[3] = Sensory evaluation on healthy hair after using shampoo agent containing organic ammonium salt; set-up: species or system human; settings: shampoo agent containing 3.0% by mass of the compound; treated 10 times
Experimental: as §1
About 5 g of the healthy hair was taken and dipped into 350 ml of a seven-time dilute aqueous solution of each of the abovementioned hair treatment compositions (shampoo agents) at 35 to 40° C. so as to be washed. The healthy hair was then subjected to a rinsing treatment five times using 500 ml of a warm water of 35 to 40° C., followed by drying the same at 80° C., and then performing air drying at 25° C. Such series of treatment involving hair washing, rinsing and drying was repeated 10 times to then evaluate a cohesiveness of the hair, a moist feeling of the hair, a gloss of the hair, a surface smoothness of the hair and a non-stickiness on the surface of the hair, after performing air drying.

[4] = Sensory evaluation on healthy hair after using conditioner containing organic ammonium salt; set-up: species or system human; settings: conditioner containing 3.0% by mass of the compound
Experimental: Here, 4.5% by mass of a stearyl alcohol (KALCOL 8688 by Kao Corporation), 2.0% by mass of a behenyl alcohol (KALCOL 220-80 by Kao Corporation) and 0.5% by mass of a phenoxyethanol (Hisolve EPH by TOHO Chemical Industry Co., Ltd.) were mixed together and heated to 75° C. to obtain a liquid A. Further, 3.0% by mass of a behentrimonium chloride (CATINAL DC-80 by TOHO Chemical Industry Co., Ltd.), 5.0% by mass of dipropylene glycol and 3.0% by mass of each of the compounds B11, B23, B26, B27 and B28 (content in terms of anhydride in the cases of the compounds B11 and B23) were added together, followed by adding a purified water thereto, and then melting them at 80° C., thus obtaining a liquid B. The liquid B was then gradually added to the liquid A, and stirring was performed at 75° C. for 20 min. Next, the mixture was cooled to a temperature of 40° C. or lower, and a purified water of an evaporated amount was then added thereto so that the whole hair treatment composition would be 100% by mass, followed by uniformly mixing them so as to obtain a hair treatment composition(s).
About 5 g of the healthy hair was dipped into and kept immersed in 150 g of a seven-time dilute aqueous solution of each of the abovementioned hair treatment compositions (conditioners) at 40° C. for 30 min. […] After air drying, a combing capability, cohesiveness and non-stickiness of the hair were evaluated.

[5] = Affinity to hair (contact angle); settings: 50 wt % aqueous solution; condition B (hair iron, 160° C.)
[6] = tested on: keratin; experiment: Stabilization effect of hair treatment agent on keratin (IR, 130° C., seven days); settings: treated keratin after 130° C. for seven days
Experimental: Here, 0.3 g of the keratin that had been treated in 4-1 was placed into a thermostatic device of 130° C. and left to stand still therein for seven days. After seven days, an IR spectrum of the keratin obtained was measured; by measuring an absorption derived from the α-helix secondary structure of amide, a stabilization effect of the hair treatment agent on the structure of keratin was evaluated.
Next, IR measurement was carried out after performing the heating test at 130° C. to obtain peaks derived from each amide and an intensity ratio(s) thereof to a reference peak (reference peak (derived from C—N) 1086 cm^−1, peak 1654 cm^−1 derived from the α-helix secondary structure of amide). The intensity ratio (X) was evaluated as “intensity of reference peak:intensity of peak derived from amide=1:X,” by reading the absorption intensity of the reference peak and the intensity of the peak derived from amide.

[7] = Water retention property test 3 (long term); type: physicochemical; settings: 80 wt % aqueous solution, 40° C. and 25% RH
Experimental: In a water retention property test 3, an 80 wt % aqueous solution of each of the compounds C8, C11, C62, C63 and C64 was prepared, followed by using a Karl Fischer moisture meter to confirm that a moisture rate was 20.0 wt %. Next, 1.0 g of each of these samples was added to a screw tube, and this screw tube, while remaining unsealed, was then left to stand still in a thermo-hygrostat set to 40° C. and 25% RH. […] In addition, the water retention property was evaluated by calculating an amount of moisture reduction per hour (mg/h) based on each amount of moisture reduction (mg).

[8] = unsealed, 24 hours at 40° C. and 25% RH

Pre-test moisture rate ([2]; before the test (Karl Fischer)): 20.0%
Post-test moisture rate [2, 8]: 18.0%
Rate of reduction in moisture [2, 8]: 10.0%
Amount of moisture reduction in 120 to 144 h ([7]; unsealed): 29.4 mg
Amount of moisture reduction in 144 to 168 h ([7]; unsealed): 30.0 mg
Amount of moisture reduction in 168 to 192 h ([7]; unsealed): 13.1 mg
Moisture rate after 144 h ([7]; unsealed): 5.4%
Moisture rate after 168 h ([7]; unsealed): 1.9%
Moisture rate after 192 h ([7]; unsealed): 0.3%
Amount of moisture reduction per hour ([7]; 120~144 h): 1.2 mg/h
Amount of moisture reduction per hour ([7]; 144~168 h): 1.3 mg/h
Amount of moisture reduction per hour ([7]; 168~192 h): 0.5 mg/h
Compound: OCC(O)CO [Compound A52, glycerin, reference compound]
Sensory evaluation of damaged hair after shampoo agent (cohesiveness, surface smoothness, waviness) [1]: inferior surface smoothness
Sensory evaluation of healthy hair after shampoo agent (cohesiveness, moist feeling, gloss, smoothness, non-stickiness) [3]: inferior in general
Combing capability, cohesiveness and non-stickiness of healthy hair after conditioner [4]: slightly inferior
Contact angle of water droplet on treated hair [5]: not indifferent from that of the untreated product
α-helix secondary structure of keratin after heating [6]: maintained
